Assay [1] has as its target Proteasome chymotrypsin-like activity (S26 protein from RPMI8226 cells) (Homo sapiens, UniProt P28074). In kind it is biochemical. The settings on record: S26 protein from RPMI8226 cell extract 2 ug/well, substrate 20 uM, 37° C., 90 minutes; read-out: Proteasome chymotrypsin-like activity inhibition IC50. The procedure, abridged:
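Fluorogenic AMC substrates (20 uM final) report chymotrypsin-like (Suc-Leu-Leu-Val-Tyr-AMC) or caspase-like (Z-Leu-Leu-Glu-AMC) cleavage by RPMI8226-derived S26 protein, 2 ug/well, pH 8.0 Tris lysate.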

Assay [2] addresses Proteasome caspase-like activity (S26 protein from RPMI8226 cells) (Homo sapiens (Human), UniProt P28072). Description: Proteasome caspase-like activity inhibition (Z-Leu-Leu-Glu-AMC fluorogenic substrate, RPMI8226 cell extract). It counts as biochemical. The settings on record: S26 protein from RPMI8226 cell extract 2 ug/well, substrate 20 uM, 37° C., 90 minutes. The method, then:
The abilities to inhibit the proteasome activity of the compounds described in the Examples of the present invention and boronic acid drugs were evaluated as follows.
RPMI8226 cells, which is a multiple myeloma cell line, were cultured and then separated by a centrifuge, and washed twice with phosphate buffered saline (PBS). 20 mM of a tris-HCl (pH 8.0) buffer solution was added to the washed cells, and the cells were disrupted by a homogenizer and centrifuged to obtain S26 protein from the supernatant. Suc-Leu-Leu-Val-Tyr-AMC, for a fluorogenic substrate for the chymotrypsin-like activity of the proteasome, and Z-Leu-Leu-Glu-AMC, for a fluorogenic substrate for the caspase-like activity, were purchased from Calbiochem, EMD Millipore and used. Into each well of a 96-well plate (opaque, black round bottom), 20 ul of the S26 protein (final RPMI8226 cell extract concentration: 2 ug/well), 10 ul of S26 proteasome inhibitor serially diluted from 10 uM (final DMSO concentration: 0.5%), and 20 ul of the fluorogenic substrate for the proteasome chymotrypsin-like or caspase-like activity (final concentration: 20 uM) were added and mixed and allowed to react in a 37° C. incubator for 90 minutes. The fluorescence of the fluorogenic substrate was measured by FlexStation II Fluorometer (Molecular Devices). The fluorescence inhibited by the compound diluted at each concentration was measured as the relative percentage value for the amount obtained from the treatment only with the S26 protein and the fluorogenic substrate. IC50 (inhibitory concentration 50) was expressed in terms of a concentration that inhibits 50% of the maximum fluorescence induced by the fluorogenic substrate.

Drawing on patent publication US12570675B2, “Boronic acid compounds” (LG CHEM, LTD., priority 2020, dated 2026), this text covers IC50 for 23 molecules.

Sequence of Proteasome chymotrypsin-like activity (S26 protein from RPMI8226 cells) (P28074 60-263 limits assumed): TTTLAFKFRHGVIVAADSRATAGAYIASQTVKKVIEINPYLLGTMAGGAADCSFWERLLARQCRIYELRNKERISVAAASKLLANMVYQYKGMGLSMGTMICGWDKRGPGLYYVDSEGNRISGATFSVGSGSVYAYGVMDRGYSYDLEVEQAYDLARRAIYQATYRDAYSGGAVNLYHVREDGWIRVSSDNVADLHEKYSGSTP
Sequence of Proteasome caspase-like activity (S26 protein from RPMI8226 cells) (P28072 whole entry): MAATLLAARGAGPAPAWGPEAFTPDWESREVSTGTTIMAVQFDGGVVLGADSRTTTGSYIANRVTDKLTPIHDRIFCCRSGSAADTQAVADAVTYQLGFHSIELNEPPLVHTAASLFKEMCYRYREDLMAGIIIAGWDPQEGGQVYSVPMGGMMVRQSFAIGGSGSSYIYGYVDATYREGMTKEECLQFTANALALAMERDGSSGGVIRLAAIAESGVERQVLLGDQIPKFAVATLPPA

As usually defined, the IC50 is the point on the concentration scale where inhibition reaches its midpoint. For the molecule `CC(C)C[C@H](NC(=O)C1(Cc2ccccc2)CC(CNC(=O)c2cccc3c2ccn3C)=NO1)B(O)O` (stereo partly drawn) [Example 138, ((1R)-1-(5-benzyl-3-((1-methyl-1H-indol-4-carboxamido)methyl)-4,5-dihydroisoxazol-5-carboxamido)-3-methylbutyl)boronic acid], the half-inhibitory concentration (IC50) in assay [1] was under 10 nM; in assay [2] it was over 500 nM.
`Cc1cccc(C(=O)NCC2=NOC(Cc3ccccc3)(C(=O)N[C@@H](CC(C)C)B(O)O)C2)n1` (stereo partly drawn) [Example 160, ((1R)-1-(5-benzyl-3-((6-methylpicolinamido)methyl)-4,5-dihydroisoxazol-5-carboxamido)-3-methylbutyl)boronic acid]: the IC50 is under 10 nM in assay [1] and over 500 nM in assay [2].
The corresponding values for `Cc1cc(C(=O)NCC2=NOC(Cc3ccccc3)(C(=O)N[C@@H](CC(C)C)B(O)O)C2)n(-c2ccc(F)cc2)n1` (stereo partly drawn) [Example 247, ((1R)-1-(5-benzyl-3-((1-(4-fluorophenyl)-3-methyl-1H-pyrazol-5-carboxamido)methyl)-4,5-dihydroisoxazol-5-carboxamido)-3-methylbutyl)boronic acid] are under 10 nM and over 1000 nM.
The corresponding values for `Cc1cc(C(=O)NCC2=NOC(Cc3ccccc3)(C(=O)N[C@@H](CC(C)C)B(O)O)C2)n(-c2ccccc2)n1` (stereo partly drawn) [Example 246, ((1R)-1-(5-benzyl-3-((3-methyl-1-phenyl-1H-pyrazol-5-carboxamido)methyl)-4,5-dihydroisoxazol-5-carboxamido)-3-methylbutyl)boronic acid] are under 10 nM and over 1000 nM.
The corresponding values for `CC(C)C[C@H](NC(=O)C1(Cc2ccccc2)CC(CNC(=O)c2cccc3c2cnn3C(C)C)=NO1)B(O)O` (stereo partly drawn) [Example 205, ((1R)-1-(5-benzyl-3-((1-isopropyl-1H-indazol-4-carboxamido)methyl)-4,5-dihydroisoxazol-5-carboxamido)-3-methylbutyl)boronic acid] are under 10 nM and over 500 nM.
As for `CC(C)C[C@H](NC(=O)C1CC(CNC(=O)c2cc(Cl)ccc2Cl)=NO1)B(O)O` (stereo partly drawn) [Example 68, ((1R)-1-(3-((2,5-dichlorobenzamido)methyl)-4,5-dihydroisoxazol-5-carboxamido)-3-methylbutyl)boronic acid], the IC50 is under 10 nM in assay [1] and over 500 nM in assay [2].
In the same order, the values of `CC(C)C[C@H](NC(=O)C1(Cc2ccccc2)CC(CNC(=O)c2n[nH]c3ccccc23)=NO1)B(O)O` (stereo partly drawn) [Example 200, ((1R)-1-(3-((1H-indazol-3-carboxamido)methyl)-5-benzyl-4,5-dihydroisoxazol-5-carboxamido)-3-methylbutyl)boronic acid] are under 10 nM and over 100 nM.
In the same order, the values of `CC(C)C[C@H](NC(=O)C1CC(CNC(=O)c2cccc(Oc3ccccc3)c2)=NO1)B(O)O` (stereo partly drawn) [Example 71, ((1R)-3-methyl-1-(3-((3-phenoxybenzamido)methyl)-4,5-dihydroisoxazol-5-carboxamido)butyl)boronic acid] are under 25 nM and over 250 nM.
The corresponding values for `CCC1(C(=O)N[C@@H](CC(C)C)B(O)O)CC(CNC(=O)c2cc(Cl)ccc2Cl)=NO1` (stereo partly drawn) [Example 87, ((1R)-1-(3-((2,5-dichlorobenzamido)methyl)-5-ethyl-4,5-dihydroisoxazol-5-carboxamido)-3-methylbutyl)boronic acid] are under 50 nM and over 2500 nM.
As to `Cc1nc(COCC2=NOC(Cc3ccccc3)(C(=O)N[C@@H](CC(C)C)B(O)O)C2)cs1` (stereo partly drawn) [Example 46, ((1R)-1-(5-benzyl-3-(((2-methylthiazol-4-yl)methoxy)methyl)-4,5-dihydroisoxazol-5-carboxamido)-3-methylbutyl)boronic acid], the IC50 in assay [1] was under 10 nM; in assay [2] it was over 250 nM.
The corresponding values for `CC(C)C[C@H](NC(=O)C1(Cc2ccccc2)CC(CNC(=O)c2cc(C(C)(C)C)nn2C(C)C)=NO1)B(O)O` (stereo partly drawn) [Example 224, ((1R)-1-(5-benzyl-3-((3-(tert-butyl)-1-isopropyl-1H-pyrazol-5-carboxamido)methyl)-4,5-dihydroisoxazol-5-carboxamido)-3-methylbutyl)boronic acid] are under 10 nM and over 2500 nM.
The corresponding values for `COc1cccc(CC2(C(=O)N[C@@H](CC(C)C)B(O)O)CC(CNC(=O)c3nccc4ccccc34)=NO2)c1` (stereo partly drawn) [Example 100, ((1R)-1-(3-((isoquinolin-1-carboxamido)methyl)-5-(3-methoxybenzyl)-4,5-dihydroisoxazol-5-carboxamido)-3-methylbutyl)boronic acid] are under 10 nM and over 1000 nM.
The corresponding values for `CC(C)C[C@H](NC(=O)C1(Cc2ccccc2)CC(CNC(=O)c2ccnn2C(C)C)=NO1)B(O)O` (stereo partly drawn) [Example 171, ((1R)-1-(5-benzyl-3-((1-isopropyl-1H-pyrazol-5-carboxamido)methyl)-4,5-dihydroisoxazol-5-carboxamido)-3-methylbutyl)boronic acid] are under 10 nM and over 500 nM.
For `Cc1ccc(F)cc1C(=O)NCC1=NOC(C(=O)N[C@@H](CC(C)C)B(O)O)C1` (stereo partly drawn) [Example 82, ((1R)-1-(3-((5-fluoro-2-methylbenzamido)methyl)-4,5-dihydroisoxazol-5-carboxamido)-3-methylbutyl)boronic acid], the half-maximal inhibitory concentration (IC50) in assay [1] was under 50 nM; in assay [2], over 500 nM.
`CC(C)C[C@H](NC(=O)C1(Cc2ccccc2)CC(CNC(=O)c2nn(C)c3ccccc23)=NO1)B(O)O` (stereo partly drawn) [Example 201, ((1R)-1-(5-benzyl-3-((1-methyl-1H-indazol-3-carboxamido)methyl)-4,5-dihydroisoxazol-5-carboxamido)-3-methylbutyl)boronic acid]: the IC50 in assay [1] was under 10 nM; in assay [2], over 250 nM.
In the same order, the values of `CC(C)C[C@H](NC(=O)C1(Cc2ccccc2)CC(CNC(=O)c2nccc3ccccc23)=NO1)B(O)O` (stereo partly drawn) [Example 84, ((1R)-1-(5-benzyl-3-((isoquinolin-1-carboxamido)methyl)-4,5-dihydroisoxazol-5-carboxamido)-3-methylbutyl)boronic acid] are under 10 nM and over 1000 nM.
In the same order, the values of `CC(C)C[C@H](NC(=O)C1CC(CNC(=O)c2cccc3c2CCCC3)=NO1)B(O)O` (stereo partly drawn) [Example 63, ((1R)-3-methyl-1-(3-((5,6,7,8-tetrahydronaphthalen-1-carboxamido)methyl)-4,5-dihydroisoxazol-5-carboxamido)butyl)boronic acid] are under 10 nM and over 500 nM.
The corresponding values for `Cc1nc(C)c(C(=O)NCC2=NOC(COc3ccccc3)(C(=O)N[C@@H](CC(C)C)B(O)O)C2)s1` (stereo partly drawn) [Example 141, ((1R)-1-(3-((2,4-dimethylthiazol-5-carboxamido)methyl)-5-(phenoxymethyl)-4,5-dihydroisoxazol-5-carboxamido)-3-methylbutyl)boronic acid] are under 10 nM and over 500 nM.
With `CC(C)C[C@H](NC(=O)C1(CCc2ccccc2)CC(CNC(=O)c2nccc3ccccc23)=NO1)B(O)O` (stereo partly drawn) [Example 162, ((1R)-1-(3-((isoquinolin-1-carboxamido)methyl)-5-penetyl-4,5-dihydroisoxazol-5-carboxamido)-3-methylbutyl)boronic acid], the figures for the IC50 in assay [1] and in assay [2] were under 25 nM and over 1000 nM, respectively.
`CC(C)C[C@H](NC(=O)C1CC(CNC(=O)c2ccccc2)=NO1)B(O)O` (stereo partly drawn) [Example 59, ((1R)-1-(3-(benzamidomethyl)-4,5-dihydroisoxazol-5-carboxamido)-3-methylbutyl)boronic acid]: the figures for the IC50 in assay [1] and in assay [2] were under 100 nM and over 500 nM, respectively.
`Cc1cc(C(=O)NCC2=NOC(Cc3ccccc3)(C(=O)N[C@@H](CC(C)C)B(O)O)C2)n(C2CCCC2)n1` (stereo partly drawn) [Example 196, ((1R)-1-(5-benzyl-3-((1-cyclopentyl-3-methyl-1H-pyrazol-5-carboxamido)methyl)-4,5-dihydroisoxazol-5-carboxamido)-3-methylbutyl)boronic acid]: the IC50 in assay [1] is under 10 nM; in assay [2], over 1000 nM.
In the same order, the values of `CC(C)C[C@H](NC(=O)C1(Cc2ccccc2)CC(CNC(=O)c2ccnn2C2CCCC2)=NO1)B(O)O` (stereo partly drawn) [Example 189, ((1R)-1-(5-benzyl-3-((1-cyclopentyl-1H-pyrazol-5-carboxamido)methyl)-4,5-dihydroisoxazol-5-carboxamido)-3-methylbutyl)boronic acid] are under 10 nM and over 1000 nM.
`CC(C)C[C@H](NC(=O)C1(Cc2ccccc2)CC(CNC(=O)c2cccn3ccnc23)=NO1)B(O)O` (stereo partly drawn) [Example 132, ((1R)-1-(5-benzyl-3-((imidazo[1,2-a]pyridin-8-carboxamido)methyl)-4,5-dihydroisoxazol-5-carboxamido)-3-methylbutyl)boronic acid]: the results for the IC50 in assay [1] and in assay [2] were under 10 nM and over 250 nM, respectively.
